Laboratory results: article PMC9697826 (Pharmaceuticals, 2022)

system: not given; test: not given; details: not given

SMILES	melting point [°C]
Nc1c(C(=O)Nc2ccccc2)c(-c2ccccc2)n[nH]c1=O [Compound 4a, 5-Amino-6-oxo-3-phenyl-1,6-dihydropyridazine-4-carboxylic acid phenylamide]	228 to 229
CCCNC(=O)c1c(-c2ccccc2)n[nH]c(=O)c1N [Compound 4b, 5-Amino-6-oxo-3-phenyl-1,6-dihydropyridazine-4-carboxylic acid propylamide]	228 to 230
CCn1nc(-c2ccccc2)c(C(=O)Nc2ccccc2)c(N)c1=O [Compound 5a, 5-Amino-1-ethyl-6-oxo-3-phenyl-1,6-dihydropyridazine-4-carboxylic acid phenylamide]	172 to 173
CCCNC(=O)c1c(-c2ccccc2)nn(CC)c(=O)c1N [Compound 5b, 5-Amino-1-ethyl-6-oxo-3-phenyl-1,6-dihydro-pyridazine-4-carboxylic acid propylamide]	141 to 143
NC(=O)c1c(-c2ccccc2)n[nH]c(=O)c1N [Compound 6, 5-Amino-6-oxo-3-phenyl-1,6-dihydropyridazine-4-carboxylic acid amide]	> 300
N#Cc1c(-c2ccccc2)n[nH]c(=O)c1N [Compound 7, 5-Amino-6-oxo-3-phenyl-1,6-dihydropyridazine-4-carbonitrile]	287 to 289
Cc1nn(-c2ccccc2)c(=O)c(N)c1C(N)=O [Compound 16, 5-Amino-3-methyl-6-oxo-1-phenyl-1,6-dihydropyridazine-4-carboxylic acid amide]	247 to 249
Cc1nn(-c2ccccc2)c(=O)c(N)c1C#N [Compound 17, 5-Amino-3-methyl-6-oxo-1-phenyl-1,6-dihydropyridazine-4-carbonitrile]	201 to 203
CC(=O)c1cnn(-c2ccccc2)c(=O)c1N [Compound 18, 5-Acetyl-4-amino-2-phenylpyridazin-3(2H)-one]	181 to 183
NC(=O)c1c(-c2ccccc2)nn(C2CCCCC2)c(=O)c1N [Compound 21, 5-Amino-1-cyclohexyl-6-oxo-3-phenyl-1,6-dihydropyridazine-4-carboxylic acid amide]	125 to 128
N#Cc1c(-c2ccccc2)nn(C2CCCCC2)c(=O)c1N [Compound 22, 5-Amino-1-cyclohexyl-6-oxo-3-phenyl-1,6-dihydropyridazine-4-carbonitrile]	170 to 172
NC(=O)Nc1cc(-c2ccccc2)n[nH]c1=O [Compound 28, (3-Oxo-6-phenyl-2,3-dihydro-pyridazin-4-yl)urea]	> 300
Cn1nc(-c2ccccc2)cc(N)c1=S [Compound 32, 4-Amino-2-methyl-6-phenylpyridazine-3(2H)-thione]	134 to 135
NC(=O)Nc1cc(-c2ccccc2O)n[nH]c1=O [Compound 40, [6-(2-Hydroxy-phenyl)-3-oxo-2,3-dihydro-pyridazin-4-yl]-urea]	> 300
Cn1nc(-c2ccccc2O)cc(NC(N)=O)c1=O [Compound 43, [6-(2-Hydroxyphenyl)-2-methyl-3-oxo-2,3-dihydropyridazin-4-yl]-urea]	278 to 280
CC(=O)Nc1ccc(-c2cc(N)c(=O)n(C)n2)cc1 [Compound 44, N-[4-(5-Amino-1-methyl-6-oxo-1,6-dihydropyridazin-3-yl)-phenyl]-acetamide]	270 to 272
Cn1nc(-c2ccccn2)cc(N)c1=O [Compound 48, 4-Amino-2-methyl-6-pyridin-2-yl-pyridazin-3(2H)-one]	294 to 295
Cn1nc(-c2ccccn2)cc(NC(N)=O)c1=O [Compound 49, (2-Methyl-3-oxo-6-pyridin-2-yl-2,3-dihydropyridazin-4-yl)-urea]	> 300
Cn1nc(-c2ccccc2)cc(C(N)=O)c1=O [Compound 51, 2-Methyl-3-oxo-6-phenyl-2,3-dihydropyridazine-4-carboxamide]	215 to 217
Cc1nn(-c2ccccc2)c(=O)c(N)c1-c1ccn[nH]1 [Compound 57, 4-Amino-6-methyl-2-phenyl-5-(1H-pyrazol-5-yl)pyridazin-3(2H)-one]	119 to 121

Now from value to compound:

melting point [°C]	SMILES
120 to 124	Nc1cc(-c2ccccc2)nn(C2CCCCC2)c1=O [Compound 24b, 4-Amino-2-cyclohexyl-6-phenylpyridazin-3(2H)-one]
122 to 124	CC(C)n1nc(-c2ccccc2)cc(N)c1=O [Compound 24d, 4-Amino-2-isopropyl-6-phenylpyridazin-3(2H)-one]
79 to 81	CCCn1nc(-c2ccccc2)cc(N)c1=O [Compound 24e, 4-Amino-6-phenyl-2-propylpyridazin-3(2H)-one]
67 to 69	CCCCn1nc(-c2ccccc2)cc(N)c1=O [Compound 24f, 4-Amino-2-butyl-6-phenylpyridazin-3(2H)-one]
> 300	Cn1nc(-c2ccccc2)cc(NC(N)=O)c1=O [Compound 25a, (2-Methyl-3-oxo-6-phenyl-2,3-dihydro-pyridazin-4-yl)urea]
261 to 263	NC(=O)Nc1cc(-c2ccccc2)nn(C2CCCCC2)c1=O [Compound 25b, (2-Cyclohexyl-3-oxo-6-phenyl-2,3-dihydro-pyridazin-4-yl)urea]
270 to 271	CCn1nc(-c2ccccc2)cc(NC(N)=O)c1=O [Compound 25c, (2-Ethyl-3-oxo-6-phenyl-2,3-dihydro-pyridazin-4-yl)urea]
260 to 263	CC(C)n1nc(-c2ccccc2)cc(NC(N)=O)c1=O [Compound 25d, (2-Isopropyl-3-oxo-6-phenyl-2,3-dihydro-pyridazin-4-yl)urea]
273 to 275	CCCn1nc(-c2ccccc2)cc(NC(N)=O)c1=O [Compound 25e, (3-Oxo-6-phenyl-2-propyl-2,3-dihydro-pyridazin-4-yl)urea]
265 to 267	CCCCn1nc(-c2ccccc2)cc(NC(N)=O)c1=O [Compound 25f, (2-Butyl-3-oxo-6-phenyl-2,3-dihydro-pyridazin-4-yl)urea]
211 to 212	CC(=O)Nc1cc(-c2ccccc2)nn(C)c1=O [Compound 29a, N-(2-Methyl-3-oxo-6-phenyl-2,3-dihydro-pyridazin-4-yl)acetamide]
210 to 211	CCC(=O)Nc1cc(-c2ccccc2)nn(C)c1=O [Compound 29b, N-(2-Methyl-3-oxo-6-phenyl-2,3-dihydro-pyridazin-4-yl)propionamide]
146 to 148	CC(C)C(=O)Nc1cc(-c2ccccc2)nn(C)c1=O [Compound 29c, N-(2-Methyl-3-oxo-6-phenyl-2,3-dihydro-pyridazin-4-yl)isobutyramide]
187 to 189	CCCC(=O)Nc1cc(-c2ccccc2)nn(C)c1=O [Compound 29d, N-(2-Methyl-3-oxo-6-phenyl-2,3-dihydro-pyridazin-4-yl)butyramide]
234 to 235	Cn1nc(-c2ccccc2)cc(Nc2cccc(C#N)c2)c1=O [Compound 30a, 3-(2-Methyl-3-oxo-6-phenyl-2,3-dihydro-pyridazin-4-ylamino)benzonitrile]
214 to 216	Cn1nc(-c2ccccc2)cc(Nc2cccc(C(N)=O)c2)c1=O [Compound 31a, 3-(2-Methyl-3-oxo-6-phenyl-2,3-dihydro-pyridazin-4-ylamino)benzamide]
140 to 142	Cn1nc(-c2ccccc2)cc(Nc2ccccc2C(N)=O)c1=O [Compound 31b, 2-(2-Methyl-3-oxo-6-phenyl-2,3-dihydro-pyridazin-4-ylamino)benzamide]
> 300	Nc1cc(-c2ccsc2)n[nH]c1=O [Compound 37a, 4-Amino-6-thiophen-3-yl-pyridazin-3(2H)-one]
284 to 287	Nc1cc(C2CCCCC2)n[nH]c1=O [Compound 37b, 4-Amino-6-cyclohexylpyridazin-3(2H)-one]
246 to 248	CC(C)c1cc(N)c(=O)[nH]n1 [Compound 37c, 4-Amino-6-isopropylpyridazin-3(2H)-one]
247 to 250	Nc1cc(Cc2ccccc2)n[nH]c1=O [Compound 37d, 4-Amino-6-benzylpyridazin-3(2H)-one]
178 to 179	Cn1nc(-c2ccsc2)cc(N)c1=O [Compound 38a, 4-Amino-2-methyl-6-thiophen-3-yl-pyridazin-3(2H)-one]
104 to 108	Cn1nc(Cc2ccccc2)cc(N)c1=O [Compound 38d, 4-Amino-6-benzyl-2-methylpyridazin-3(2H)-one]
251 to 254	Cn1nc(C2CCCCC2)cc(NC(N)=O)c1=O [Compound 39a, (6-Cyclohexyl-2-methyl-3-oxo-2,3-dihydropyridazin-4-yl)urea]
248 to 251	CC(C)c1cc(NC(N)=O)c(=O)n(C)n1 [Compound 39b, (6-Isopropyl-2-methyl-3-oxo-2,3-dihydropyridazin-4-yl)urea]
212 to 213	Cn1nc(-c2ccccc2O)cc(N)c1=O [Compound 42a, 4-Amino-6-(2-hydroxyphenyl)-2-methylpyridazin-3(2H)-one]
208 to 209	Cn1nc(-c2ccc(N)cc2)cc(N)c1=O [Compound 42b, 4-Amino-6-(4-aminophenyl)-2-methylpyridazin-3(2H)-one]

molecular target: T1, FABP4 (Homo sapiens, UniProt P15090); test: FABP4 Inhibitor/Ligand Screening Assay Kit: displacement of a fluorescent detection reagent; format: binding; details: displacement of detection reagent from FABP4; compounds diluted in PBS pH 7.4; fluorescence em 470 nm, ex 370 nm
T1 construct: purchased Cayman Chemical 10010231
T1 sequence (P15090 whole entry): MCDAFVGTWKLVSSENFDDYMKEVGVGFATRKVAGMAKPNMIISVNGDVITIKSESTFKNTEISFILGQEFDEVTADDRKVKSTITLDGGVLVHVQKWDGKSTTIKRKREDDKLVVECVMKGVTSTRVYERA
Method: FABP4 inhibitory activity was assessed by measuring the decrease in fluorescent signal of a detection reagent (DR) when displaced by a strong FABP4 ligand. […] Therefore, any effective ligand of the protein, which binds to the same binding pocket and can displace the DR, determines a reduction in the fluorescence read-out. The new molecular series was screened in a two-step procedure. Firstly, a single concentration of 5 µM was used to gain an estimation of the overall inhibitory effect of all the molecules.
To analyze the inhibitory activity of FABP4 ligands, a displacement assay was utilized as described by the Cayman’s instruction, FABP4 Inhibitor/Ligand Screening Assay Kit, Item 10,010,231 (see Supplementary Materials for additional details). The samples of compounds for activity determination were prepared as a stock solution (1 mM) in DMSO. On the day of activity assay, the compounds were all diluted in phosphate buffer solution (PBS, pH 7.4) to different concentrations (100, 50, 10, 5, 2, 1, and 0 µM). Appropriate concentrations of DMSO in PBS were used as control. The detection reagent (FABP Assay Detection Reagent, Item 10010376) was used as provided by the Cayman’s kit. The diluted Detection Reagent probe was mixed with FABP4 protein present in the kit and incubated for 10 min at room temperature. Compounds were then added and equilibrated for another 10 min. Lastly, the fluorescence signal was recorded at 470 nm (i.e., emission, with the excitation fixed at 370 nm) with a CytoFluor® Series 4000 Fluorescence Multi-Well Plate Reader.

SMILES	IC50 [µM]
CCCNC(=O)c1c(-c2ccccc2)n[nH]c(=O)c1N [Compound 4b, 5-Amino-6-oxo-3-phenyl-1,6-dihydropyridazine-4-carboxylic acid propylamide]	8.27 ± 0.2
N#Cc1c(-c2ccccc2)nn(C2CCCCC2)c(=O)c1N [Compound 22, 5-Amino-1-cyclohexyl-6-oxo-3-phenyl-1,6-dihydropyridazine-4-carbonitrile]	15.2 ± 0.76
Cc1cc(N)c(=O)n(-c2ccccc2)n1 [Compound 54]	> 50

The next lines start with the values.

IC50 [µM]	SMILES
2.97 ± 0.26	Cn1nc(-c2ccccc2)cc(NC(N)=O)c1=O [Compound 25a, (2-Methyl-3-oxo-6-phenyl-2,3-dihydro-pyridazin-4-yl)urea]
> 50	CCn1nc(-c2ccccc2)cc(NC(N)=O)c1=O [Compound 25c, (2-Ethyl-3-oxo-6-phenyl-2,3-dihydro-pyridazin-4-yl)urea]
> 50	CCCn1nc(-c2ccccc2)cc(NC(N)=O)c1=O [Compound 25e, (3-Oxo-6-phenyl-2-propyl-2,3-dihydro-pyridazin-4-yl)urea]
23.2 ± 0.52	Cn1nc(-c2ccccc2)cc(Nc2ccccc2C#N)c1=O [Compound 30b, 2-(2-Methyl-3-oxo-6-phenyl-2,3-dihydro-pyridazin-4-ylamino)benzonitrile]

same assay, conditions: summary statement in conclusions

SMILES	FABP4 inhibitory activity, IC50 in words
CCCNC(=O)c1c(-c2ccccc2)n[nH]c(=O)c1N [Compound 4b, 5-Amino-6-oxo-3-phenyl-1,6-dihydropyridazine-4-carboxylic acid propylamide]	low micromolar range
N#Cc1c(-c2ccccc2)nn(C2CCCCC2)c(=O)c1N [Compound 22, 5-Amino-1-cyclohexyl-6-oxo-3-phenyl-1,6-dihydropyridazine-4-carbonitrile]	low micromolar range

Next, values leading:

FABP4 inhibitory activity, IC50 in words	SMILES
low micromolar range	Cn1nc(-c2ccccc2)cc(NC(N)=O)c1=O [Compound 25a, (2-Methyl-3-oxo-6-phenyl-2,3-dihydro-pyridazin-4-yl)urea]
low micromolar range	Cn1nc(-c2ccccc2)cc(Nc2ccccc2C#N)c1=O [Compound 30b, 2-(2-Methyl-3-oxo-6-phenyl-2,3-dihydro-pyridazin-4-ylamino)benzonitrile]
